The text below walks through data of publication PMC3266433 (Antiviral Research, 2011).

Data set [1] deals with T1, DEN2V NS2B-NS3pro (Dengue virus type 2, UniProt P29990). Briefly: Steady-state kinetics of DEN2V NS2B-NS3pro inhibition. The class given is biochemical, dengue 2 virus. The conditions noted are these: BOC-GRR-AMC 0 to 1.2 mM.
The target in data set [2] is T2, bovine pancreatic trypsin (Bos taurus, UniProt P00760).
T2 sequence (P00760 24-246): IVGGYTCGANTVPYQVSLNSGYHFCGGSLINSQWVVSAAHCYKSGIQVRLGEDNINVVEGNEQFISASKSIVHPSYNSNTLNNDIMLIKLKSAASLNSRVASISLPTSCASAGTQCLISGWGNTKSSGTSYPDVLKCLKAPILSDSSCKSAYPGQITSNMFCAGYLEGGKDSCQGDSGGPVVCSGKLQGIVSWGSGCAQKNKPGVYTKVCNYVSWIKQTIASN
Description: Single-point trypsin inhibition assay to validate selectivity. As to conditions: 100 μM compound; BOC-GRR-AMC 30 μM. It counts as biochemical.

For data set [3], the target named is T1, DEN2V NS2B-NS3pro. Briefly: Single-point DEN2V NS2B-NS3pro inhibition assay to validate hits. It counts as biochemical, dengue 2 virus. The conditions noted are these: single-point validation assay.
In a further data set the target is WNV NS2B-NS3pro (West Nile virus, UniProt Q9Q6P4). Briefly: Steady-state kinetics of WNV NS2B-NS3pro inhibition. It counts as biochemical.
WNV NS2B-NS3pro, sequence (Q9Q6P4 1428-1467): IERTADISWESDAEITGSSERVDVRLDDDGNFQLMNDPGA
WNV NS2B-NS3pro, sequence (Q9Q6P4 1506-1683): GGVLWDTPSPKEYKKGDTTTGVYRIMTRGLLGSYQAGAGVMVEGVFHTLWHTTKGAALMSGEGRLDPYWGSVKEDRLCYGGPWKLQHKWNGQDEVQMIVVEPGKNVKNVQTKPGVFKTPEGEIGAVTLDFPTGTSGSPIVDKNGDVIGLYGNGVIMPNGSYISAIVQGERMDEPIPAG
The next data set has as its system cells. The conditions noted are these: ref Yip et al., 2006; cited from earlier work.
The mark [4] stands for this setting: read-out: Ki1, DEN2V NS2B-NS3pro.
Where [5] appears, read: read-out: Ki2, DEN2V NS2B-NS3pro.

Counter-ions that a name gives are not always drawn. Like-named read-outs stand apart in the source and are kept apart here.

T1 sequence (P29990 1398-1437): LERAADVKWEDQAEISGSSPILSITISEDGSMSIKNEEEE
T1 sequence (P29990 1476-1653): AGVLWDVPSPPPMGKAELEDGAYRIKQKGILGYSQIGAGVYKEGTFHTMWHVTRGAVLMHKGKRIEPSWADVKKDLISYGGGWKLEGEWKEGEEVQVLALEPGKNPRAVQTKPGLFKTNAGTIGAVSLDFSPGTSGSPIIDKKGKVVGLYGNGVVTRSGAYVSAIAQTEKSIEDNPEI

As to `CC[C@H](C)[C@H]1O[C@]2(CC[C@@H]1C)C[C@@H]1C[C@@H](C/C=C(\C)[C@@H](O[C@H]3C[C@H](OC)[C@@H](O[C@H]4C[C@H](OC)[C@@H](O)[C@H](C)O4)[C@H](C)O3)[C@@H](C)/C=C/C=C3\CO[C@@H]4[C@H](O)C(C)=C[C@@H](C(=O)O1)[C@]34O)O2` [MS21, Ivermectin], the Mechanism result on DEN2V NS2B-NS3pro [1] (DEN2V NS2B-NS3pro) and on WNV NS2B-NS3pro (WNV NS2B-NS3pro) was “mixed” throughout. Further, the Ki on DEN2V NS2B-NS3pro [1] (setting [4]) was determined as 79 ± 21 µM; at DEN2V NS2B-NS3pro [1] (setting [5]) it was 35 ± 4 µM; on WNV NS2B-NS3pro (read-out: Ki1, WNV NS2B-NS3pro), 55 ± 18 µM; at WNV NS2B-NS3pro (read-out: Ki2, WNV NS2B-NS3pro) it was 16 ± 4 µM. In addition, in data set [2], the trypsin inhibition result is recorded as “did not inhibit trypsin”. Further, the “DEN2V protease inhibition (in words)” value at DEN2V NS2B-NS3pro [3] is given as “inhibited DEN2V protease”.

As to `Cc1cc(C(C)(C)CC(C)(C)C)ccc1OCCOCC[N+](C)(C)Cc1ccccc1.[Cl-]` [MS22, Methylbenzethonium chloride], the Mechanism result on DEN2V NS2B-NS3pro [1] (DEN2V NS2B-NS3pro) and at WNV NS2B-NS3pro (WNV NS2B-NS3pro) was “mixed” in each case. For the same molecule, the Ki turned out to be 322 ± 81 µM on DEN2V NS2B-NS3pro [1] (setting [4]); 160 ± 39 µM on DEN2V NS2B-NS3pro [1] (setting [5]); 141 ± 20 µM at WNV NS2B-NS3pro (read-out: Ki1, WNV NS2B-NS3pro); 307 ± 80 µM at WNV NS2B-NS3pro (read-out: Ki2, WNV NS2B-NS3pro). Moreover, the trypsin inhibition result in data set [2] is recorded as “did not inhibit trypsin”. Further, on DEN2V NS2B-NS3pro [3], the “DEN2V protease inhibition (in words)” value was “inhibited DEN2V protease”.

Take `CO[C@H]1C[C@H](O[C@@H]2/C(C)=C/C[C@@H]3C[C@@H](C[C@]4(CC[C@H](C)[C@@H](C5CCCCC5)O4)O3)OC(=O)[C@@H]3C=C(C)/C(=N/O)[C@H]4OC/C(=C\C=C\[C@@H]2C)[C@]43O)O[C@@H](C)[C@@H]1O` [MS24, Selamectin]: the Mechanism entry on DEN2V NS2B-NS3pro [1] (DEN2V NS2B-NS3pro) and at WNV NS2B-NS3pro (WNV NS2B-NS3pro) was “mixed” in each case. Besides, the Ki was found to be 45 ± 8 µM on DEN2V NS2B-NS3pro [1] (Ki2, DEN2V NS2B-NS3pro); 15 ± 9 µM on WNV NS2B-NS3pro (Ki1, WNV NS2B-NS3pro); 28 ± 6 µM at WNV NS2B-NS3pro (Ki2, WNV NS2B-NS3pro). In data set [2], the trypsin inhibition entry is given as “did not inhibit trypsin”. Besides, the “DEN2V protease inhibition (in words)” value on DEN2V NS2B-NS3pro [3] is reported as “inhibited DEN2V protease”.

`CCCCC(CC)CNC(=N)NC(=N)NCCCCCCNC(=N)NC(=N)NCC(CC)CCCC` (stereo not shown) [MS28, Alexidine hydrochloride]: the Mechanism result at DEN2V NS2B-NS3pro [1] (DEN2V NS2B-NS3pro) is given as “mixed inhibition mechanism”; on WNV NS2B-NS3pro (WNV NS2B-NS3pro), “mixed”. Also, the Ki came out at 84 ± 16 µM at DEN2V NS2B-NS3pro [1] (Ki2, DEN2V NS2B-NS3pro); 12 ± 1.2 µM on WNV NS2B-NS3pro (Ki1, WNV NS2B-NS3pro); 28 ± 5 µM at WNV NS2B-NS3pro (Ki2, WNV NS2B-NS3pro). In addition, in data set [2], the trypsin inhibition result is on record as “did not inhibit trypsin”. Further, the “CC50 (cell viability reduced by 50%)” value in the data set with cells is listed as “low micromolar”. Moreover, at DEN2V NS2B-NS3pro [3], the “DEN2V protease inhibition (in words)” value is “inhibited DEN2V protease”.
